One data set has as its system SW48 cells. Description: SW48 colon cancer xenograft in NSG mice. Format: in vivo. To be noted: for tumor growth / tumor size / survival: SW48 s.c. in NSG mice, 20 mg/kg i.p. q.o.d.; for tumor growth / tumor size: vs vehicle. The method, then: Fig. 3 Antitumor, survival, and metabolic effects of MC180295 and its enantiomers, MC180379 and MC180380. A Antitumor effects of MC180295, MC180379, and MC180380. NSG mice were inoculated (s.c.) with 2 × 10^6 SW48 cells. Eleven days later, when tumors were palpable, 20 mg/kg MC180295, MC180379, MC180380, or vehicle were administered (i.p.) every other day (q.o.d.). Tumor sizes were measured using a caliper. […] . C Antitumor effects of MC180379 and MC180380. NSG mice were inoculated (s.c.) with 1 × 10^6 HT29 cells. Twelve days later, when tumors were palpable, 20 mg/kg MC180379, MC180380, or vehicle were administered (i.p.) q.o.d. Tumor sizes were measured using a caliper. D HT29-xenografted mouse survival following (i.p.) q.o.d. dosing with 20 mg/kg MC180379 or MC180380. E NSG mice were inoculated (i.p.) with 5 × 10^5 MV4-11-luc cells. Four days later, when substantial tumor burden was evident by bioluminescence imaging, MC180379, MC180380, or vehicle were administered (i.p.) q.o.d at 20 mg/kg. Luciferase expression was quantified and calculated. F Mouse survival in days. […] G In vitro liver microsome stability and rat hepatocyte/Sprague–Dawley stability assay comparing MC180379 to MC180380. The dog breed was beagle and the mouse microsome strain was CD-1. All sexes (including the hepatocytes) were male except the human microsomes which were mixed gender. Significances were calculated using log-rank (Mantel-Cox) or Student’s t tests.
Fig. 4 Antitumor and survival-extending properties of a hypomethylating agent (DAC) combined with MC180295. A Antitumor effects of MC180295 and MC180295 + DAC. NSG mice were inoculated (s.c.) with 2 × 10^6 SW48 cells. Eleven days later, when tumors were palpable, 20 mg/kg MC180295 or vehicle were administered (i.p.) q.o.d. 0.5 mg/kg DAC was administered (i.p.) daily. Tumor sizes were measured using a caliper. B Mouse survival in days. 20 mg/kg MC180295 was administered (i.p.) q.o.d. 0.5 mg/kg DAC was administered (i.p.) daily. C NSG mice were inoculated (i.p.) with 5 × 10^5 MV4-11-luc cells. Four days later, when substantial tumor burden was evident by bioluminescence imaging, MC180295 (20 mg/kg) or vehicle were administered (i.p.) every other day. 0.5 mg/kg DAC was administered (i.p.) daily. Luciferase expression was quantified and calculated. […] E Antitumor effects of MC180380 and MC180380 + DAC. NSG mice were inoculated (s.c.) with 2 × 10^6 SW48 cells. Eleven days later, when tumors were palpable, 10 mg/kg MC180380, 20 mg/kg MC180380, or vehicle was administered (i.p.) q.o.d. 0.5 mg/kg DAC was administered (i.p.) daily. Mouse survival shown in days. Significances were calculated using log-rank (Mantel-Cox) or Student's t tests. Data are shown as means ± SEMs. ***p < 0.001
For the s.c. SW48 model, 2 × 10^6 cells were injected into the flanks of randomly assigned, gender-matched 8–10-week-old NSG mice.

A short description of data set [1]: Drug toxicity: body weights and complete blood counts in tumor-bearing mice. The data set is classed as in vivo. On the procedure: For the s.c. SW48 model, 2 × 10^6 cells were injected into the flanks of randomly assigned, gender-matched 8–10-week-old NSG mice. 20 mg/kg MC180379, MC180380, or MC180295 was injected (i.p.), every other day, when the tumors were palpable, 11 days after engraftment, until endpoints were met. Mice were sacrificed before tumor volumes exceeded 400 mm^2 (endpoint for this model). For the s.c. HT29 model, 2 × 10^6 cells were injected into the flanks of randomly assigned, gender-matched, 8–10-week-old NSG mice. 20 mg/kg MC180379 or MC180380 was injected (i.p.), every other day, when the tumors were palpable, 12 days after engraftment, until endpoints were met. Mice were sacrificed before tumors volumes exceeded 400 mm^2 (used as the endpoint for this model). For the CT26.CL25 model, 5 × 10^5 cells were injected into the flanks of randomly assigned female 8–10-week-old B6 mice. 20 mg/kg MC180295 was injected (i.p.), every other day, when the tumors were palpable, 8 days after engraftment, until endpoints were met. 0.5 mg/kg DAC was injected (i.p.) daily until an endpoint was met. Mice were sacrificed when they developed serious tumoral ulcerations. CD8 + T cells were depleted using an anti-CD8 antibody (InVivoMAb anti-mouse CD8 (Lyt 2.1), BE0118) on days 4, 5, and 11 after inoculation. MC180295, MC180379, and MC180380 were dissolved in NMP (Fisher Scientific), Captisol® (20% w/v) (CyDex), PEG-400 (Millipore Sigma), and normal saline (PBS) (Corning), at a ratio of 1:4:4:11. NMP was added first, followed by Captisol and PEG-400. PBS was added last. DAC was dissolved in water. In a subset of the experiments, after mice were sacrificed, peripheral blood was collected, and complete blood counts were obtained using Abaxis VetScan HM5.

For data set [2], the system named is GFP silenced by a methylated CMV promoter in YB5 cells. Description: Live-cell assay for GFP reactivation in YB5 cells. Format: cell-based. To be noted: for lowest concentration reactivating GFP: after 24 h treatment, FACS. On the procedure:
To identify novel epigenetic targets, we previously used a phenotype-based screen, the YB5 SW48 daughter cell line reporter system, to identify drugs that can reactivate GFP silenced by a methylated CMV promoter. […] […]. To better understand MC180295's antitumor effects, we tested its growth inhibition in a panel of cancer cell lines.
The live-cell assay for GFP reactivation in YB5 cells was done as previously described. Cells were treated with a single dose of drug 24 h after seeding at low density, and GFP fluorescence measured in a Millipore Guava flow cytometer (EMD, Millipore) instrument, or by imaging in a Cytation instrument (Agilent). Cancer cell lines (listed in Additional file 1: Fig. S1A) were obtained from ATCC or the Temple/Fox Chase Cellular Repository and cultured in the recommended medium. To measure growth inhibition, cells were seeded in 96-well plates at 40% confluency. Fresh medium was changed the next day and drugs were added directly. Drug-free fresh medium was changed on the fourth day. The cells were collected on day 5 by trypsin, suspended in medium, mixed with trypan blue (Thermo Fisher Scientific) (1:1 ratio), and counted using a LUNA II automated cell counter. Each sample was counted at least three times, and average numbers used for the analysis. Each treatment condition was performed in biological triplicates.

The mark [3] stands for this setting: SW48 model, 20 mg/kg i.p. q.o.d.
The mark [4] stands for this setting: HT29 model, 20 mg/kg i.p. q.o.d.

Entries after “also recorded” stand apart in the source; their conditions may differ.

Regarding `Nc1nc(N[C@H]2C[C@@H]3CC[C@H]2C3)sc1C(=O)c1ccccc1[N+](=O)[O-]` (relative stereo) [MC180295], the “tumor growth / tumor size” value in the data set with SW48 cells (20 mg/kg) was “significantly reduce tumor size”; with SW48 cells (listed as MC190295, 20 mg/kg), “no statistical difference in tumor size”. Moreover, the survival entry in the data set on SW48 cells (20 mg/kg) is “prolong overall survival”. Also, the body weights entry is “neither MC180295 nor MC180295 + DAC treatment affected NSG mouse body weights, after CD8 depletion” in data set [1] (CT26.CL25 immunocompetent mice, after CD8 depletion, Fig. S5B); “neither MC180295 nor MC180295 + DAC treatment affected NSG mouse body weights” in data set [1] (CT26.CL25 immunocompetent mouse model, Fig. S5A); “did not affect NSG mouse body weights” in data set [1] (SW48 model, NSG mice, Fig. S4C). The “lowest concentration reactivating GFP” value in data set [2] came to 100 nM.
For the compound `Nc1nc(N[C@@H]2C[C@H]3CC[C@@H]2C3)sc1C(=O)c1ccccc1[N+](=O)[O-]` [MC180379], in the data set with SW48 cells, the survival result was “no survival difference”. Besides, in data set [1] (setting [3]), the “tolerability; neutrophil, lymphocyte, monocyte counts” value is reported as “well-tolerated”. Further, in data set [2], the “lowest concentration reactivating GFP” value worked out at 500 nM.
Turning to `Nc1nc(N[C@H]2C[C@@H]3CC[C@H]2C3)sc1C(=O)c1ccccc1[N+](=O)[O-]` [MC180380], the “overall survival, dose comparison” value in the data set with SW48 cells (SW48 in NSG mice, 10 or 20 mg/kg MC180380 i.p. q.o.d.) is given as 20 mg/kg led to better overall survival than 10 mg/kg. The survival entry with SW48 cells (20 mg/kg) is “no survival difference”. In data set [1] (setting [4]), the “absolute lymphocyte and monocyte counts” value was “higher absolute lymphocyte and monocyte counts than MC180379-treated mice”; the platelet counts result is “higher platelet counts than those treated with MC180379”. In addition, in data set [1] (setting [3]), the platelet counts result was “slightly higher platelet counts than MC180379” and the “tolerability; neutrophil, lymphocyte, monocyte counts” value was “well-tolerated”. For the same compound, the body weights result in data set [1] (SW48 model, NSG mice, Fig. S4E) is “did not affect NSG mouse body weights”. For the same compound, in data set [1] (in vivo, from lymphocyte, monocyte and platelet counts), the bone marrow suppression entry is recorded as “less bone marrow-suppressive (and thus less toxic) than MC180379”. Besides, in data set [2] (24 h and 4 days after one-time treatment), the “potency in inducing GFP (comparison of enantiomers)” value is “more potent than MC18379 in inducing GFP; also recorded: epigenetically more potent than MC180379”. Moreover, in data set [2], the “lowest concentration reactivating GFP” value is 100 nM.

Values taken from article PMC10765884, “MC180295 is a highly potent and selective CDK9 inhibitor with preclinical in vitro and in vivo efficacy in cancer” (Clinical Epigenetics, 2024).
